Data from the METLIN SMRT retention time set (Domingo-Almenara et al. 2019).

Test: gradient 5% acetonitrile 3 min, to 50% in 2 min, to 85% in 15 min, held 3 min, 100 µL/min
Conditions: column: Zorbax Extend-C18 2.1 x 50 mm; eluents: water / acetonitrile, 0.1% formic acid
Procedure, shortened: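 Retention times of pure standards were taken from adduct peaks that were selected by computer and manually inspected. Over 3 months, mixtures of ~100 molecules were run by HPLC–quadrupole time-of-flight mass spectrometry in positive and negative ionization mode. The Zorbax Extend-C18 column (2.1 × 50 mm, 1.8 μm) ran at 100 μL/min in water and acetonitrile, each containing 0.1% formic acid, with 40 μL dead volume and 900 μL dwell volume.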

Row | RP-LC retention time | SMILES
1 | 703 s | Brc1ccc(-c2ccc(CNCc3ccccn3)o2)cc1
2 | 694 s | CCn1nccc1C(=O)N1CCN(c2cc(-c3ccccc3)[nH]n2)CC1
3 | 1040 s | Cc1ccc(-c2nc3n(CC(=O)N4CCCCC4C)c4c(c(=O)n3n2)CCC4)cc1 (stereo not drawn)
4 | 1100 s | COc1ccccc1-c1noc(Cn2ncn3nc(-c4cc(C)ccc4C)cc3c2=O)n1
5 | 738 s | Cc1ccc(Nc2c(-c3ccccc3O)nc3ncccn23)cc1Cl
6 | 771 s | CCn1c(SC)nnc1-c1nn(C)c2c1CN(C(=O)Cc1ccc(F)cc1)CC2
7 | 871 s | Cc1ccc(C(=O)NCc2nc(-c3ccc4c(c3)oc(=O)n4C(C)C)no2)cc1
8 | 635 s | CCn1cc(CCN2CCN(S(=O)(=O)c3cccc(C#N)c3)CC2)c2cccnc21
9 | 867 s | O=C(NC(c1ccccc1)c1nnc(N2CCCC2)o1)c1ccccc1Cl (stereo not drawn)
10 | 665 s | Cc1c(C(=O)N2CCc3nc(NC(=O)C4CCCO4)sc3C2)cnn1-c1ccccc1 (stereo not drawn)
11 | 1070 s | Cc1ccc(OCC(=O)Nc2cnn(C)c(=O)c2N2CCCCC2)cc1
12 | 604 s | Cc1cc(C)cc(Nc2c(C(=O)N3CCOCC3)cnc3nc(C)ccc23)c1
13 | 671 s | CC(C)n1c(CCNC(=O)c2ccc(F)cc2F)nc2cccnc21
14 | 1120 s | Cc1ccc(Nc2c(-c3cc(Br)ccc3O)nc3ncccn23)c(C)c1
15 | 644 s | Cc1nc2ccn(Cc3ccco3)c(=O)c2cc1C(=O)N1CCN(C)CC1
16 | 673 s | O=C(c1noc2c1CCc1sccc1-2)N1CCN(c2ccccn2)CC1
17 | 764 s | CCC(=O)N1CCc2cc(-c3ccc(C(=O)N4CCN(C(=O)c5ccco5)CC4)cc3)ccc21
18 | 592 s | CC1(C)CC(=O)c2cn(-c3ccc(Cl)cc3)c(=O)c(C(=O)NCCN3CCOCC3)c2C1
19 | 613 s | Cc1noc(C)c1CCC(=O)N1CCCn2ccnc2C1C1CCCC1 (stereo not drawn)
20 | 975 s | Cc1cc(C)n(-c2ccnc(NCCC3=CCCCC3)n2)n1
21 | 907 s | Cc1cc(C)n2c(Nc3ccccc3C)c(-c3ccc(O)cc3)nc2n1
22 | 907 s | CCN1C(=O)c2cccnc2Sc2cc(NC(=O)c3ccc(Cl)cc3)ccc21
23 | 823 s | CN1c2ccc(F)cc2C(=O)NC12CCN(C(=O)c1ccc(F)c(Cl)c1)CC2
24 | 1010 s | O=C(CN1C(=O)CC(c2ccccc2)=Nc2cccnc21)Nc1ccc(Cl)cc1
25 | 615 s | O=C(CN1CCN(C(=O)Nc2ccc(F)cc2)CC1=O)N1CCCC1

Row | RP-LC retention time | SMILES
26 | 795 s | Cc1coc2c(C)c3oc(=O)c(CCC(=O)N4CCN(c5ccccn5)CC4)c(C)c3cc12
27 | 650 s | O=C(c1ccc2nnc(-c3ccc(Cl)cc3)n2c1)N1CCN(c2ccccn2)CC1
28 | 705 s | CCn1cc(CCNC(=O)Nc2ccc(C)cc2C)c2cccnc21
29 | 939 s | CCOc1ccc(C(=O)N2CCC3(CC2)C(=O)N(CC)c2ccccc23)cc1OCC
30 | 933 s | Cn1nc(-c2nc(Cc3ccccc3)no2)c2c1CCN(C(=O)NC1CCCCC1)C2
31 | 936 s | CN1C(=O)c2cccnc2Sc2cc(NC(=O)c3ccc(OC(F)(F)F)cc3)ccc21
32 | 748 s | Cc1ccc(-n2nc3c(=O)n(CCCC(=O)N4CCCC4)nc(C)c3c2C)cc1
33 | 1090 s | CCOc1ccc(C2c3[nH]c4ccccc4c3CCN2C(=O)C2CC2)cc1 (stereo not drawn)
34 | 680 s | Cc1cnc(-c2ccccc2)n1C1CCN(S(=O)(=O)c2ccc(C#N)cc2)C1 (stereo not drawn)
35 | 718 s | COc1ccc(NC(=O)C2CCc3nc(N4CCOCC4)ncc3C2)cc1F (stereo not drawn)
36 | 999 s | Cc1nc(-c2cn(C(C)C)c3ncccc23)sc1C(=O)N1CCC(C)CC1
37 | 827 s | COc1ccc2[nH]cc(CCNC(=O)C(C)C3CCN(S(=O)(=O)c4cccs4)CC3)c2c1 (stereo not drawn)
38 | 574 s | O=C(NCCCN1CCCC1)c1ccc(-c2ccc(N3CCSCC3)nc2)cc1
39 | 681 s | Cc1cc2n(n1)CCC(=O)N2CCCC(=O)N(C)Cc1ccccc1
40 | 640 s | COc1ccc(C2C(C(=O)N3CCN(C)CC3)c3cc(OC)c(OC)cc3C(=O)N2C)cc1 (stereo not drawn)
41 | 806 s | Fc1ccc(CN2CCc3nc(N4CCN(c5ccccc5F)CC4)ncc3C2)cc1F
42 | 1290 s | CCC(C)n1c(=O)c2ccccc2n(Cc2nc(-c3ccc(C(F)(F)F)cc3)no2)c1=O (stereo not drawn)
43 | 902 s | CCCc1cc(C2CCCN2C(=O)Nc2ccccc2C)no1 (stereo not drawn)
44 | 833 s | Cc1ccc(-n2nc(N3CCN(C(=O)Nc4ccccc4Cl)CC3)ccc2=O)cc1
45 | 653 s | CCCN1CCN(C(=O)c2cccn2Cc2noc(-c3ccccc3)n2)CC1
46 | 551 s | COc1ccccc1NC(=O)N1CCC(c2nc3ccncc3n2C(C)C)C1 (stereo not drawn)
47 | 780 s | O=C(c1cc2ccccc2[nH]1)N1CCN2CCS(=O)(=O)N(C3CC3)C(=O)C2C1 (stereo not drawn)
48 | 764 s | O=C(Cn1c(=O)oc2ccc(C(=O)N3CCCC3)cc21)NCCCc1ccccc1
49 | 849 s | CCN1c2ccc(C)cc2C(=O)NC12CCN(C(=O)c1ccc(C)cc1)CC2
50 | 652 s | COCCNC(=O)Cn1c(=O)n(-c2ccc(F)cc2)c2ncccc21

The remaining lines, values behind:

Row | SMILES | RP-LC retention time
51 | O=c1c2cc(-c3cccs3)nn2cnn1Cc1nc(-c2ccc(OC(F)(F)F)cc2)no1 | 1180 s
52 | CCc1cc(C(=O)NCc2ccc(F)cc2)nc2ccnn12 | 909 s
53 | COC(=O)COc1cc(-c2ccc(F)cc2)nc2ccc(NC(=O)Cc3ccccc3)cc12 | 809 s
54 | CC1CCN(CC2CCCCCN2C(=O)Nc2ccc3c(c2)OCCO3)CC1 (stereo not drawn) | 684 s
55 | Cn1nccc1C(=O)Nc1ccsc1-c1nc(-c2ccccc2)no1 | 1280 s
56 | CCc1noc(CC2CCOC3(CCN(S(=O)(=O)c4ccc(Cl)cc4)CC3)C2)n1 (stereo not drawn) | 1070 s
57 | CCc1nc(-c2c(C)cc(C)nc2NC(=O)c2cc(C)cc(C)c2)no1 | 605 s
58 | CCOc1ccc(CC(=O)NC2(c3nc(CC)no3)CCCCC2)cc1 | 940 s
59 | CCN1C(=O)COc2ccc(-c3noc(-c4ccc(OC)cc4OC)n3)cc21 | 1040 s
60 | O=C(NCc1ccco1)Nc1cccc([N+](=O)[O-])c1 | 846 s
61 | O=C(CSc1ccc(-c2ccc3c(c2)OCO3)nn1)Nc1ccc2c(c1)OCCO2 | 782 s
62 | O=C(c1csc(S(=O)(=O)N2CCC(C(=O)N3CCCC3)CC2)c1)N1CCCCCC1 | 769 s
63 | Cc1ccc(Nc2c(-c3ccccc3O)nc3ccc(C)cn23)cc1 | 774 s
64 | O=C(CC1CCOC2(CCN(Cc3ccsc3)CC2)C1)N1CCOCC1 (stereo not drawn) | 570 s
65 | Cc1cccc(-c2nc3ccccn3c2NC(=O)Nc2ccccc2)c1 | 665 s
66 | Cc1ccc(C(=O)Nc2nccnc2C(=O)N2CCC3(CC2)OCCO3)cc1 | 724 s
67 | CCN(Cc1ccccc1)C(=O)CS(=O)Cc1cnn(-c2ccccc2)c1-n1cccc1 (stereo not drawn) | 825 s
68 | CCN(CC)C(=O)c1ccc(-c2nnc3ccc(NC(=O)C4CC4)cn23)cc1 | 699 s
69 | O=C(N[C@H]1C[C@@H]2C[C@H]1CN2C(=O)NCc1cccc(F)c1)c1cccs1 | 738 s

Row | SMILES | RP-LC retention time
70 | Cc1c(C(=O)Nc2ccccc2)cnc2nc(-c3ccncc3)nn12 | 594 s
71 | CCCCNC(=O)c1ccc2c(c1)NC(=O)C1CCCCN21 (stereo not drawn) | 759 s
72 | O=C(C1CCN(S(=O)(=O)c2cc(-c3noc(C4CC4)n3)cs2)CC1)N1CCCC1 | 829 s
73 | O=C(C1CC1)N1CCc2sc(S(=O)(=O)Nc3cc(Cl)ccc3F)cc2C1 | 868 s
74 | CCCCN(C)C(=O)CN1C(=O)C2CCCCN2c2ccc(S(=O)(=O)N(CC)CC)cc21 (stereo not drawn) | 1010 s
75 | CN(C)c1ccc(C(=O)N2CCCC2c2nc(-c3ccc(F)cc3F)no2)cc1 (stereo not drawn) | 984 s
76 | CCc1noc(-c2ccc(-n3cnc(C(=O)NC4CCCCC4)c3)nc2)n1 | 1110 s
77 | CN(C)CC(=O)N1CCC(Oc2nccnc2N(C)C)C1 (stereo not drawn) | 539 s
78 | CN(C)c1cc(-n2cnc(C(=O)NCc3cccc(Cl)c3)c2)ncn1 | 793 s
79 | O=C(C1CCN(c2cnc(N3CCOCC3)nc2)CC1)N1CCCCC1 | 646 s
80 | CCC(=O)NCCc1csc(C2CCCN(C(=O)CC)C2)n1 (stereo not drawn) | 591 s
81 | Cc1ccc(-c2noc(Cn3ccn(-c4ccc(Cl)cc4)c(=O)c3=O)n2)cc1 | 918 s
82 | CCCN1CCN(C(=O)C(C)C2CCN(S(=O)(=O)c3ccc(Cl)s3)CC2)CC1 (stereo not drawn) | 674 s
83 | COc1ccc(-n2nnc3c(SCc4cccc([N+](=O)[O-])c4)ncnc32)cc1 | 1100 s
84 | COC(=O)C(NC(=O)Nc1cccn2c(C)nnc12)c1ccccc1 (stereo not drawn) | 678 s
85 | COc1ccc(CNC(=O)C2CC(=O)N(CCc3c[nH]c4ccc(Cl)cc34)C2)cc1 (stereo not drawn) | 834 s
86 | COc1ccc(Cl)cc1NC(=O)NCC1(CO)CC1 | 684 s
87 | COc1ccc(/C=C/c2nc(-c3ccc4oc(C)nc4c3)no2)cc1 | 1150 s
88 | CCC(C)NC(=O)Cn1ccn2nc(-c3ccc(F)cc3)c(CO)c2c1=O (stereo not drawn) | 725 s
